Data reported in US4916219A, “Oligosaccharide heparin fragments as inhibitors of complement cascade” (University of Iowa Research Foundation, priority 1988, dated 1990).

Columns and labels:
[1] = system: factor Xa; test: Antithrombin III mediated anti-factor Xa activity, purified plasma proteins; type: biochemical; conditions: standard curve using heparin (Mr avg 14,000), 167 units/mg
Procedure: (§1) This example illustrates the anticoagulant activity of each heparin and heparin-oligosaccharide fragment. Anticoagulant activity was determined by aPTT (activated thromboplastin time) (Linhardt et al., J. Biol. Chem. 257: 7310-13, 1982). Antithrombin III-mediated anti-factor IIa and antifactor Xa activity was measured using purified plasma proteins as described in Linhardt et al. and in Table 2. […] Two bovine heparins had 106% and 124% of standard porcine heparin's activity and the low molecular weight heparin had 100% of standard porcine heparin's activity on complement activation.

[2] = system: T1, factor IIa (Homo sapiens); test: Antithrombin III mediated anti-factor IIa activity, purified plasma proteins; type: biochemical; conditions: standard curve using heparin (Mr avg 14,000), 167 units/mg
T1 construct: anti-factor IIa; from tissue
T1 sequence (P01008 33-464): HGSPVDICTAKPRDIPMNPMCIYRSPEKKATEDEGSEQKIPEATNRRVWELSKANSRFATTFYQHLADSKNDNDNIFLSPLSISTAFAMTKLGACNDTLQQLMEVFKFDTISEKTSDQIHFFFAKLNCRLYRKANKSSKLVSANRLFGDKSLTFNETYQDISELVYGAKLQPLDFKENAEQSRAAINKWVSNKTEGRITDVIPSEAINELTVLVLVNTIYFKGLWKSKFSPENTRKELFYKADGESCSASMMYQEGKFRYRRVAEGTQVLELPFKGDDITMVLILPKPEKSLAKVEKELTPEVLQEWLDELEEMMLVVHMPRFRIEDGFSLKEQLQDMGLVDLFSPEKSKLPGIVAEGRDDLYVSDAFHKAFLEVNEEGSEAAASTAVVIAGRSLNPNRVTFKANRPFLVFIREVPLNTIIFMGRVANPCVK
Procedure: as §1
(§2) The anticoagulant activity of heparin-oligosaccharides and commercial heparins measured by antifactor IIa assays are plotted against their ability to inhibit complement activation in FIG. 5. The porcine heparins, bovine heparins, and low molecular heparins cluster, showing only minor differences in activities.

[3] = system: aPTT (activated thromboplastin time); test: Anticoagulant activity by aPTT; type: biochemical; conditions: standard curve using heparin (Mr avg 14,000), 167 units/mg
Procedure: as §1, §2

[4] = target: T2, alternative-amplification pathway C3 convertase on EAC4b,3b (Homo sapiens, UniProt P00751+P01024); test: Inhibition of generation of alternative-amplification pathway C3 convertase (lysis of EAC4b,3b); type: biochemical, sheep erythrocyte
T2 construct: C3bBb(P) formation read by lysis with rat serum-EDTA
T2 sequence (P01024 23-1663): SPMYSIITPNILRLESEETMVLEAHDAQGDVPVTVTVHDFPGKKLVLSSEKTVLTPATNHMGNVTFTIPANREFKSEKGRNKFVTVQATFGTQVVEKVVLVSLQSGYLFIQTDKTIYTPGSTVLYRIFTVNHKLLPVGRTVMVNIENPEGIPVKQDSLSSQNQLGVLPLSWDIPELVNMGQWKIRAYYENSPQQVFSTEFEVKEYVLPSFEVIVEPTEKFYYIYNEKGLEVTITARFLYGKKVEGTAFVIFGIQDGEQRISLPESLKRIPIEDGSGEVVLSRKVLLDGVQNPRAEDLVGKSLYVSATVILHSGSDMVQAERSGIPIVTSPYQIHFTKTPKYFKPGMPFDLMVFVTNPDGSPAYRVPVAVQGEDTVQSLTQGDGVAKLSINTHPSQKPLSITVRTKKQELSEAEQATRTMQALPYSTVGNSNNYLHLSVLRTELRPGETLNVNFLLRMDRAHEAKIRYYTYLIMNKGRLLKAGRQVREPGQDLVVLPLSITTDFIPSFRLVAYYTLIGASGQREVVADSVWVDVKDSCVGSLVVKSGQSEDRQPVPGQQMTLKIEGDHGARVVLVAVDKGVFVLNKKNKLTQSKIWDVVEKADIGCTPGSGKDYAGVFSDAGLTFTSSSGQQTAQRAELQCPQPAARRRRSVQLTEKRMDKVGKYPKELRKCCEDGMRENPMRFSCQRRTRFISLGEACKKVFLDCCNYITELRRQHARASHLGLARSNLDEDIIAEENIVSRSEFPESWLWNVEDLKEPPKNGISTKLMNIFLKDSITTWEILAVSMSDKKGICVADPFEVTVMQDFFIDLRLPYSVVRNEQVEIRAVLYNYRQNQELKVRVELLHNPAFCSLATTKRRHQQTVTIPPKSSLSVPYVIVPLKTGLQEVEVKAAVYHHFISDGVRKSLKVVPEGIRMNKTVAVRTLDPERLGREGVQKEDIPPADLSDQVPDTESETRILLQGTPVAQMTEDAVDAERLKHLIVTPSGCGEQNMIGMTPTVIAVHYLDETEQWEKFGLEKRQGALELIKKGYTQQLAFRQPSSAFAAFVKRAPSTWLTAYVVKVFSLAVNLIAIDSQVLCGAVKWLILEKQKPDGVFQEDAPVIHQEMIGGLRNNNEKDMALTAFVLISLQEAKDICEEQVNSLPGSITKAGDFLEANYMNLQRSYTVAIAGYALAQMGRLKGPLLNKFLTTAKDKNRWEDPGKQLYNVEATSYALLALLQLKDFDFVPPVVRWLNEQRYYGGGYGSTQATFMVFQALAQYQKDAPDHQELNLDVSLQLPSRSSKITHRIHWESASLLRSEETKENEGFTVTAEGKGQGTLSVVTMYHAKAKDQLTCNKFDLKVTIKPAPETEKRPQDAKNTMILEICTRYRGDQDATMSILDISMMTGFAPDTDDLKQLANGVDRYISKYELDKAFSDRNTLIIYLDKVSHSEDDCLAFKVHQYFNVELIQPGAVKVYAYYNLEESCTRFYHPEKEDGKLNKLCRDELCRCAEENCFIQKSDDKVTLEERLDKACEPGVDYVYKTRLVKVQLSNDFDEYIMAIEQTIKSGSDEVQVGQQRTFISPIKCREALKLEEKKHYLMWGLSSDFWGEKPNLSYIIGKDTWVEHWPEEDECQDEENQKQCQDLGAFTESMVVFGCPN
T2 sequence (P00751 26-764): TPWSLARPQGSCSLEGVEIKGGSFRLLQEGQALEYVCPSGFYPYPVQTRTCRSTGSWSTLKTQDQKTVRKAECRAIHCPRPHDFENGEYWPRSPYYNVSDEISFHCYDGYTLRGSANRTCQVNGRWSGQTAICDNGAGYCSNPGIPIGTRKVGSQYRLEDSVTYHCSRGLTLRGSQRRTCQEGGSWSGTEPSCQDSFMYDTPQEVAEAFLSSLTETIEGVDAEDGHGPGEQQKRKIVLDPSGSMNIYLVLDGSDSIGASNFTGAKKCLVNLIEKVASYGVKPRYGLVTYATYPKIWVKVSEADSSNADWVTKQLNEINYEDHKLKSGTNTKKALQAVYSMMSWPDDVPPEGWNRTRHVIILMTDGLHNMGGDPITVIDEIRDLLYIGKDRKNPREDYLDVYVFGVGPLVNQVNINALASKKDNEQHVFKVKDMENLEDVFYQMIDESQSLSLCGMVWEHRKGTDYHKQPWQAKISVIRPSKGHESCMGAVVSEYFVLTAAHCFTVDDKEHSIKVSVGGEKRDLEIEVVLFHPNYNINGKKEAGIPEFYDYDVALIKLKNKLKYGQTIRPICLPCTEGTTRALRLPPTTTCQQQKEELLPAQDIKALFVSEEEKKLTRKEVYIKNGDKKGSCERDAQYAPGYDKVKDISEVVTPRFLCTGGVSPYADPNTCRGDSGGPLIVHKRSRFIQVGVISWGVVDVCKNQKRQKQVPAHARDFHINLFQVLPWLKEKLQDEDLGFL
T2 sequence (P27918 28-469 partner): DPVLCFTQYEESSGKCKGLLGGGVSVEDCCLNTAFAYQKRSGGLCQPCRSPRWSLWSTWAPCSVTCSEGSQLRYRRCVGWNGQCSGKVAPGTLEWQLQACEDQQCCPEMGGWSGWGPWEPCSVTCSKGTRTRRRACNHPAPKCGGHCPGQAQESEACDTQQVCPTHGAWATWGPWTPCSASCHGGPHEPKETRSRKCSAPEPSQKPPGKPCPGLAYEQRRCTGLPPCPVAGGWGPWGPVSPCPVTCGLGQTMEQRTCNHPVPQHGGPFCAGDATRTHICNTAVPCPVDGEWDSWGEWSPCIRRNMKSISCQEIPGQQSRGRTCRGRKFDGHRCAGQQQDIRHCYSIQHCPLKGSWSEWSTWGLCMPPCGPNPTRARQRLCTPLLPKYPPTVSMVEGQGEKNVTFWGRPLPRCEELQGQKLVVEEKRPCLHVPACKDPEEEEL
T2 sequence (P00746 26-253 partner): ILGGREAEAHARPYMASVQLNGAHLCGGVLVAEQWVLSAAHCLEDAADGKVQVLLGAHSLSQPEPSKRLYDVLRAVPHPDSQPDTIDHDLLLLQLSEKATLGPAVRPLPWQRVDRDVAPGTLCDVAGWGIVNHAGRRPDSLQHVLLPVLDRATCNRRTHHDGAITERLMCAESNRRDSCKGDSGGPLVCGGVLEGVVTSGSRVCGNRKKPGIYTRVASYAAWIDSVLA
Procedure: This example illustrates the activity of heparin and heparin-oligosaccharides to inhibit generation of the alternative-amplification pathway C3 convertase. The method described in Weiler et al., J. Exp. Med. 147: 409-421, 1978; Weiler, Immunopharmacology 6: 245-255, 1983; and Sharath et al., Immunopharmacology 9: 73-83, 1985, was used. Briefly, inhibition was examined in experiments that used EAC4b,3b which were prepared to have high, intermediate, and low amounts of C3 on the cell surface. EAC4b,3b^100, EAC4b,3b^20, and EAC4b,3b^5 were produced using a C3 input of 100 μg, 20 μg, and 5 μg per 10^9 EAC4b,2a cellular intermediates, respectively. Complement assay buffer (DGVB^++) 100 μL, alone was added to tubes used for the reagent blank, no inhibition, and 100% lysis; or complement assay buffer containing a heparin or heparin-oligosaccharide solution was added to the remaining tubes. At time zero, 100 μl of complement assay buffer containing a suspension of 1×10^7 EAC4b,3b, an excess amount of P and D (100 ng P), and an amount of B needed to lyse the noninhibited tubes at an average of 1 hemolytic event per cell (0.03 ng B for EAC4b,3b^100, 0.15 ng B for EAC4b,3b^20, and 0.50 ng B for EAC4b,3b^5) was added to each tube. The tubes used for the reagent blank contained no B. The mixtures were incubated for 30 minutes at 30° C. with shaking. Then, 300 μL of a 1:20 dilution of rat serum in 40 mM EDTA was added to each tube and incubation was continued with shaking for 60 minutes at 37° C. Saline (1.5 mL) was then added to each tube, except the 100% tube which was lysed with 1.5 mL of water in place of the saline. Finally, the contents of the tubes were mixed, centrifuged and the absorbance of the supernatant was measured at 414 nm.
The percent lysis, the average number of hemolytic sites per cell (Z), and the percent inhibition were then calculated. Data are expressed as either percent inhibition or as 100 times the ED50 (the amount of heparin resulting in 50% inhibition) for heparin divided by the ED50 for heparin-oligosaccharide. Concentration of heparin and heparin-oligosaccharides are expressed as micrograms per 1×10^7 cellular intermediates. The volume of the reaction tubes during convertase generation varied between 0.2 mL and 0.3 mL; the number of cellular intermediates was held at 1×10^7 per tube. The amount of lysis (Z) seen in the nonhibited tube was relatively independent of the volume of buffer present in the tube during convertase generation. Similarly, the amount of inhibition of convertase generation was independent of the volume of buffer present in the tube during convertase generation.

| Anticoagulant ACTIVITY Antithrombin III mediated Anti-factor IIa [2] | Complement activation inhibitory activity [4] | Structure (SMILES) | Anticoagulant ACTIVITY Antithrombin III mediated Anti-factor Xa [1] | Anticoagulant ACTIVITY aPTT [3] |
| --- | --- | --- | --- | --- |
| < 3 units/μmole |  | O=C(O)C1=CC(O)C(OS(=O)(=O)O)C(OC2C(COS(=O)(=O)O)OC(OC3C(C(=O)O)OC(OC4C(COS(=O)(=O)O)OC(OC5C(C(=O)O)OC(OC6C(COS(=O)(=O)O)OC(OC7C(C(=O)O)OC(OC8C(COS(=O)(=O)O)OC(OC9C(C(=O)O)OC(OC%10C(COS(=O)(=O)O)OC(O)C(NS(=O)(=O)O)C%10O)C(OS(=O)(=O)O)C9O)C(NS(=O)(=O)O)C8O)C(OS(=O)(=O)O)C7O)C(NS(=O)(=O)O)C6O)C(OS(=O)(=O)O)C5O)C(NS(=O)(=O)O)C4O)C(OS(=O)(=O)O)C3O)C(NS(=O)(=O)O)C2O)O1 (centres unmarked) [10D] | 136 units/μmole | 54 units/μmole |
| 11 units/μmole | low activity | CC(=O)NC1C(OC2C(C(=O)O)OC(OC3C(COS(=O)(=O)O)OC(O)C(NS(=O)(=O)O)C3OS(=O)(=O)O)C(O)C2O)OC(COS(=O)(=O)O)C(OC2OC(C(=O)O)C(OC3OC(COS(=O)(=O)O)C(OC4OC(C(=O)O)=CC(O)C4OS(=O)(=O)O)C(O)C3NS(=O)(=O)O)C(O)C2O)C1O [6C, ΔUAp2S(1→4)-α-D-GlcNp2S6S(1→4)-α-L-IdoAp(1→4)-α-D-GlcNAcp6S-(1→4)-β-D-GlcAp( 1→4)-α-D-GlcNp2S3S6S] | 26 units/μmole | 26 units/μmole |
| < 2 units/μmole |  | O=C(O)C1=CC(O)C(OS(=O)(=O)O)C(OC2C(COS(=O)(=O)O)OC(OC3C(C(=O)O)OC(OC4C(COS(=O)(=O)O)OC(OC5C(C(=O)O)OC(OC6C(COS(=O)(=O)O)OC(O)C(NS(=O)(=O)O)C6O)C(OS(=O)(=O)O)C5O)C(NS(=O)(=O)O)C4O)C(OS(=O)(=O)O)C3O)C(NS(=O)(=O)O)C2O)O1 (centres unmarked) [6D] | 4 units/μmole | 11 units/μmole |
| < 1 units/μmole | low activity | O=C(O)C1=C[C@H](O)[C@@H](OS(=O)(=O)O)[C@H](O[C@H]2[C@H](O)[C@@H](NS(=O)(=O)O)C(O)O[C@@H]2COS(=O)(=O)O)O1 (stereo partly drawn) [compound 2, ΔUAp2S(1→4)-α-D-GlcNp2S6S] | < 0.1 units/μmole | < 1 units/μmole |
| < 3 units/μmole |  | O=C(O)C1=CC(O)C(OS(=O)(=O)O)C(OC2C(COS(=O)(=O)O)OC(OC3C(C(=O)O)OC(OC4C(COS(=O)(=O)O)OC(OC5C(C(=O)O)OC(OC6C(COS(=O)(=O)O)OC(OC7C(C(=O)O)OC(OC8C(COS(=O)(=O)O)OC(O)C(NS(=O)(=O)O)C8O)C(OS(=O)(=O)O)C7O)C(NS(=O)(=O)O)C6O)C(OS(=O)(=O)O)C5O)C(NS(=O)(=O)O)C4O)C(OS(=O)(=O)O)C3O)C(NS(=O)(=O)O)C2O)O1 (centres unmarked) [8D] | 32 units/μmole | 22 units/μmole |
| < 2 units/μmole | low activity | O=C(O)C1=C[C@H](O)[C@@H](OS(=O)(=O)O)[C@H](O[C@H]2[C@H](O)[C@@H](NS(=O)(=O)O)[C@@H](O[C@H]3[C@H](O)[C@@H](O)[C@H](O[C@H]4[C@H](O)[C@@H](NS(=O)(=O)O)C(O)O[C@@H]4COS(=O)(=O)O)O[C@@H]3C(=O)O)O[C@@H]2COS(=O)(=O)O)O1 (stereo partly drawn) [4B, ΔUAp2S(1→4)-α-D-GlcNp2S6S(1→4)-β-D-GlcAp(1→4)-α-D-GlcNp2S6S] | 0.1 units/μmole | 2 units/μmole |
| < 1 units/μmole | low activity | O=C(O)C1=C[C@H](O)[C@@H](OS(=O)(=O)O)[C@H](O[C@H]2[C@H](O)[C@@H](NS(=O)(=O)O)[C@@H](O[C@H]3[C@H](O)[C@@H](OS(=O)(=O)O)[C@H](O[C@H]4[C@H](O)[C@@H](NS(=O)(=O)O)C(O)O[C@@H]4COS(=O)(=O)O)O[C@H]3C(=O)O)O[C@@H]2CO)O1 (stereo partly drawn) [4A, ΔUAp2S(1→4)-α-D-GlcNp2S(1→4)-α-L-IdoAp2S-α-D-GlcNp2S6S] | < 0.1 units/μmole | 2 units/μmole |
| < 2 units/μmole | low activity | O=C(O)C1=C[C@H](O)[C@@H](OS(=O)(=O)O)[C@H](O[C@H]2[C@H](O)[C@@H](NS(=O)(=O)O)[C@@H](O[C@H]3[C@H](O)[C@@H](OS(=O)(=O)O)[C@H](O[C@H]4[C@H](O)[C@@H](NS(=O)(=O)O)C(O)O[C@@H]4COS(=O)(=O)O)O[C@H]3C(=O)O)O[C@@H]2COS(=O)(=O)O)O1 (stereo partly drawn) [4C, ΔUAp2S(1→4)-α-D-GlcNp2S6S(1→4)-α-L-IdoAp2S(1→4)-α-D-GlcNp2S6S] | 3 units/μmole | 2 units/μmole |
